This is an account of results in patent EP0396827A1, “2-Phenylthiobenzylamine dervivatives and acid addition salts thereof” (SPOFA Spojené Podniky Pro Zdravotnickou Vyrobu, priority 1989, dated 1990).

Series [1] deals with T1, IP receptors (Rattus norvegicus, UniProt P31652).
T1 construct: standard biochemical tests on rat hypothalamus; from tissue; host or cells: rat hypothalamus
Nature of the series: inhibition of tritium-labelled imipramine binding in rat hypothalamus. As to the method: (§1) The above compound was selected as a preferred structure from numerous related new substances on the basis of pharmacological evaluation.
(§2) The substances under study were tested in the form of salts administered p.o. The results are conventionally expressed as medium inhibition concentrations IC₅₀ (nM) and effective doses ED (eliciting a first statistically significant response) or medium effective doses ED₅₀ (mg per kg); the concentrations and effective doses are calculated as the corresponding amounts of the base.
(§3) Acute toxicity was tested in mice p.o. and medium lethal dose LD₅₀ is given. Thus, compound IA hydrogen maleate LD₅₀ 232 mg/kg. […] Reserpine hypothermia ED 10, ptosis 25, ulceration 50 mg/kg. Yohimbine, ED₅₀ 54.7 mg/kg.

The nature of series [2]: antireserpine activity: reserpine hypothermia. The format is in vivo. To be noted: p.o.; ED eliciting a first statistically significant response; calculated as base. As to the method: (§4) Also, standard pharmacological tests of antireserpine activity (on experimental hypothermia, eyelid ptosis and gastric ulceration) and potentiation of yohimbine toxicity in mice are indicative of pronounced antidepressant properties of compound IA.
as §2, §3

The subject of series [3] is 5-HT re-uptake. The experiment in a line: ³H-5-HT re-uptake inhibition in rat brain cortex. It is filed as biochemical. To be noted: ³H-5-HT 10 nM, calculated as base, read-out: 5-HT re-uptake IC₅₀. On the procedure:
(§5) The reported selective action of compound IA was verified by direct comparison of ³H-5-HT (10 nM) and ³H-noradrenaline (NA, 10 nM) re-uptake in rat brain cortex; again the two sets of values were markedly differentiated in the sense of predominant 5-HT re-uptake inhibition.
as §2, §3

Series [4] is described as follows: acute toxicity in mice p.o. To be noted: mouse, in vivo, po, read-out: LD₅₀. As to the method:
as §3

Series [5] deals with T2, DP receptors (Rattus norvegicus, UniProt Q63380).
T2 construct: standard biochemical tests on rat hypothalamus; from tissue; host or cells: rat hypothalamus
T2 sequence (Q63380 1-617): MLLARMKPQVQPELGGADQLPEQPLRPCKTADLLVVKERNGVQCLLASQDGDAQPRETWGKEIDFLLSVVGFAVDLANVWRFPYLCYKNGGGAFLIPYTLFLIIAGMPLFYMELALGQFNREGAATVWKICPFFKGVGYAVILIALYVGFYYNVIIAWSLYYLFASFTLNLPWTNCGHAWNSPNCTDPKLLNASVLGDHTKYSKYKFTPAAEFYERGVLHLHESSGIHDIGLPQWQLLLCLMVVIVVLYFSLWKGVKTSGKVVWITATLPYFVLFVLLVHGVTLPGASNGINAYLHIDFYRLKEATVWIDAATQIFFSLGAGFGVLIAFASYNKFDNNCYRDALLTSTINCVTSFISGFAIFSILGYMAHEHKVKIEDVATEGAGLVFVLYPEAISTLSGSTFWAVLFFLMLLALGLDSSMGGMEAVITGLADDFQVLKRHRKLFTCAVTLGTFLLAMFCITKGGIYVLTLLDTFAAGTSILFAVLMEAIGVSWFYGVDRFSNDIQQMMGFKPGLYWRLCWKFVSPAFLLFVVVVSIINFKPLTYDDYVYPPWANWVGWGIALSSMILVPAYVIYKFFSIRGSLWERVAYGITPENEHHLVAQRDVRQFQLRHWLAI
Nature of the series: inhibition of tritium-labelled desipramine binding in rat hypothalamus. As to the method:
as §1, §2, §3

Series [6] in a line: antireserpine activity: reserpine gastric ulceration. It is filed as in vivo. To be noted: p.o.; ED eliciting a first statistically significant response; calculated as base. As to the method:
as §4, §2, §3

A short description of series [7]: antireserpine activity: reserpine eyelid ptosis. It is filed as in vivo. To be noted: p.o.; ED eliciting a first statistically significant response; calculated as base. As to the method:
as §4, §2, §3

For series [8], the system named is NA re-uptake. The experiment in a line: ³H-noradrenaline re-uptake inhibition in rat brain cortex. To be noted: ³H-noradrenaline 10 nM, calculated as base, read-out: NA re-uptake IC₅₀. It is filed as biochemical. As to the method:
as §5, §2, §3

Series [9] can be described thus: potentiation of yohimbine toxicity in mice. The format is in vivo. To be noted: Mus musculus, po, calculated as base, read-out: Yohimbine, ED₅₀. As to the method: as §4, §2, §3

Structures are written as SMILES. pIC50: −log10 of the molar value. Counter-ions that a name gives are not always drawn.

T1 sequence (P31652 whole entry): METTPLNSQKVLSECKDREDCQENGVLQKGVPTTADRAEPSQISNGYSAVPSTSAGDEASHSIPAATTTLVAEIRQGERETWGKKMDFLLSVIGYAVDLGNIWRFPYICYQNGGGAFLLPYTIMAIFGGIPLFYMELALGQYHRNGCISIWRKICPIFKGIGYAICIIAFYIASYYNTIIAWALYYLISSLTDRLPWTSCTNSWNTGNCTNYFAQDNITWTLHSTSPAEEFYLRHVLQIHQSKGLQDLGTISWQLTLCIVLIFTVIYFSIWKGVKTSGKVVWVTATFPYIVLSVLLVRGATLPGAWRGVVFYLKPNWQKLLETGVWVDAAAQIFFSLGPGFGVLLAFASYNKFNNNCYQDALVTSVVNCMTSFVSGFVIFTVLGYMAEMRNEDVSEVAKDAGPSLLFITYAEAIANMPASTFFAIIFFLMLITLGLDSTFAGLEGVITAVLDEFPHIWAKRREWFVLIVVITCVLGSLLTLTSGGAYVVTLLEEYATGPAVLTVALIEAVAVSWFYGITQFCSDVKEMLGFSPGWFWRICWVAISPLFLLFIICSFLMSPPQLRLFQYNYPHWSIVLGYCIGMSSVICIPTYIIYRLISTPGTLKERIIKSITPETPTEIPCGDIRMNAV

On to `CN(C)Cc1ccccc1Sc1cccc(O)c1` [compound IA hydrogen maleate, N,N-Dimethyl-2-(3-hydroxyphenylthio)benzylamine], for which the pIC50 in series [1] was 8.37; in series [3], 9.24; in series [5] it was 4.89; in [8] it was 3.30. The “Reserpine hypothermia ED” value in series [2] was 10 mg/kg. Further, the LD50 in series [4] was 232 mg/kg. For the same molecule, the “Reserpine ulceration ED” value in [6] is given as 50 mg/kg. For the same molecule, in series [7], the “Reserpine ptosis ED” value is recorded as 25 mg/kg. For the same molecule, the ED50 in series [9] was 54.7 mg/kg.
